What was measured:
Format in all cases: cell-based, human
[1] = test system: activated form of cleaved caspase 3; experiment: Western blot for cleaved caspase 3 in TGF-β-stimulated iFECD; settings: 0.1, 1, 10 μM
Description: (§1) […] were seeded on a 12-well plate at a ratio of 8×10^4 cells per well, and cultured at 37° C. (5% CO2) for 24 hours. DMEM+10% FBS+1% P/S was used as the medium. After 24 hours, the medium was removed. EW-7197 (Selleck Chemicals, 57530) was added so that the final concentration would be 0.1, 1, or 10 μM, and SB431542 (WAKO, 192-16541) was added so that the final concentration would be 10 μM, and the medium was cultured for 24 hours. DMEM+2% FBS+1% P/S was used as the medium. After 24 hours, the medium was removed and cultured […] so that the final concentration of 10 ng/ml of Transforming Growth Factor-132 Human recombinant (WAKO, 200-19911) and […] would be 0.1, 1, and 10 μM, and that of SB431542 would be 10 μM. DMEM+2% FBS+1% P/S was used as the medium. After 24 hours, the cell morphology and apoptosis were observed under a phase contrast microscope. To retrieve floating and dead cells, the medium was retrieved on ice, cells were washed twice with 1×PBS(-) and the solution thereof was also retrieved. The solution was centrifuged for 5 min at 4° C. and 800 g and the supernatant was discarded to obtain a precipitate. […] The detected band intensities were analyzed with Lumino Image Analyzer LAS-4000 mini (Fuji Film) and ImageQuantTM software (GE Healthcare).

fibronectin = experiment: Western blot for fibronectin in TGF-β-stimulated iFECD; settings: any of the concentrations 0.1, 1, 10 μM
Description: as §1

Caspase 3/7 = Caspase 3/7 activity (Caspase-Glo 3/7 Assay) in TGF-β-stimulated iFECD
Description: were seeded on a 96-well plate at a ratio of 3×10^3 cells per well, and cultured until reaching confluence at 37° C. (5% CO2). DMEM+10% FBS+1% P/S was used as the medium. After 24 hours, the medium was removed. SB431542 (WAKO, 192-16541) and EW-7197 (Selleck Chemicals, 57530) were added so that the final concentration would each be 0.01, 0.1, 1, or 10 μM, and the medium was cultured for 24 hours. DMEM+2% FBS+1% P/S was used as the medium. After 24 hours, the medium was removed. 10 ng/ml of Transforming Growth Factor-132 Human recombinant (WAKO, 200-19911) and SB431542 were added so that the final concentration would be 0.01, 0.1, 1, and 10 μM, and the medium was cultured for 24 hours. DMEM+2% FBS+1% P/S was used as the medium. After 24 hours, the cell morphology was observed under a phase contrast microscope. After observation, Caspase 3/7 activity was measured using Caspase-Glo 3/7 Assay by the following procedures. The medium was discarded so that the amount would be 50 μl per well, and a Caspase Glo 3/7 Assay Reagent (mixture of Caspase-Glo 3/7 Assay Buffer and Caspase-Glo 3/7 Assay Substrate) (Promega, G8091) solution was added at 50 μl/well so that the ratio thereof to the medium would be 1:1. The process was hereinafter conducted without exposure to light. The mixture was mixed thoroughly using a shaker for 2 minutes at about 120 min^-1, and incubated for 40 minutes at room temperature. After the incubation, 80 μl was transferred to an Assay plate (Corning, 3912, Assay plate 96 well, white polystyrene), and absorbance was measured using a GloMax-Multi Detection System (Promega, E7051). A caspase inhibitor, i.e., 10μ MZ-VD-FMK (WAKO, 262-02061) was used as a positive control.

iFECD = experiment: Cell survival rate (Cell Titer-Glo Luminescent Cell Viability Assay)
Description: were seeded on a 96-well plate at a ratio of 3×10^3 cells per well, and cultured until reaching confluence at 37° C. (5% CO2). DMEM+10% FBS+1% P/S was used as the medium. After 24 hours, the medium was removed. SB431542 (WAKO, 192-16541) and EW-7197 (Selleck Chemicals, 57530) were added so that the final concentration would each be 0.01, 0.1, 1, or 10 μM, and the medium was cultured for 48 hours. DMEM+2% FBS+1% P/S was used as the medium. After 24 hours, the cell morphology was observed under a phase contrast microscope. After observation, the cell survival rate was analyzed using Cell Titer-Glo Luminescent Cell Viability Assay by the following procedures. The medium was discarded so that the amount would be 50 μl per well, and Cell Titer-Glo Luminescent Cell Viability Assay solution (Promega, G7572) was added at 50 μl/well so that the ratio to the medium would be 1:1. The process was hereinafter conducted without exposure to light. The mixture was mixed thoroughly using a shaker for 2 minutes at about 120 min^-1, and incubated for 10 minutes. After the incubation, 80 μl was transferred to an Assay plate (Corning, 3912, Assay plate 96 well, white polystyrene), and absorbance was measured using a GloMax-Multi Detection System (Promega, E7051).

activity of Caspase 3/7 (Caspase 3/7; at 0.01 μM): inhibited significantly
Caspase 3/7 inhibitory effect compared to SB431542 (Caspase 3/7; at 0.1 μM): higher inhibitory effect
Compound: Cc1cccc(-c2[nH]c(CNc3ccccc3F)nc2-c2ccc3ncnn3c2)n1 [EW-7197, N-((4-([1,2,4]triazolo[1,5-a]pyridin-6-yl)-5-(6-methylpyridin-2-yl)-1H-imidazol-2-yl)methyl)-2-fluoroaniline]
activated form of cleaved caspase 3 (about 17 kDa) [1]: suppressed to the same degree as the control group without stimulation with TGF-β or 10 μM of SB431542
expression of fibronectin (about 240 kDa) (fibronectin): suppressed to the same degree as the control group without stimulation with TGF-β or 10 μM of SB431542
cell survival rate compared to a control group (iFECD; iFECD, all concentrations of 0.01, 0.1, 1, and 10 μM, 48 hours): a significant difference was not found
toxicity to cells in a cell survival rate test (iFECD; summary statement): hardly found

From patent US11857544B2, “Composition or method including (t)ew-7197 for treating or preventing corneal endothelial diseases” (THE DOSHISHA, priority 2017, dated 2024)
